Usually EC50 stands for the concentration giving half of the maximal effect.

SMILES strings stand for the structures.

EC50 data for 26 compounds are collected here from patent US8394789B2, “(Dihydro)pyrrolo[2,1-α]isoquinolines” (MSD Oss B.V., priority 2008, dated 2013).

The target of the test is T1, human FSH receptor (Homo sapiens, UniProt P23945).
T1 construct: expressed in transfected cells
T1 sequence (P23945 18-695): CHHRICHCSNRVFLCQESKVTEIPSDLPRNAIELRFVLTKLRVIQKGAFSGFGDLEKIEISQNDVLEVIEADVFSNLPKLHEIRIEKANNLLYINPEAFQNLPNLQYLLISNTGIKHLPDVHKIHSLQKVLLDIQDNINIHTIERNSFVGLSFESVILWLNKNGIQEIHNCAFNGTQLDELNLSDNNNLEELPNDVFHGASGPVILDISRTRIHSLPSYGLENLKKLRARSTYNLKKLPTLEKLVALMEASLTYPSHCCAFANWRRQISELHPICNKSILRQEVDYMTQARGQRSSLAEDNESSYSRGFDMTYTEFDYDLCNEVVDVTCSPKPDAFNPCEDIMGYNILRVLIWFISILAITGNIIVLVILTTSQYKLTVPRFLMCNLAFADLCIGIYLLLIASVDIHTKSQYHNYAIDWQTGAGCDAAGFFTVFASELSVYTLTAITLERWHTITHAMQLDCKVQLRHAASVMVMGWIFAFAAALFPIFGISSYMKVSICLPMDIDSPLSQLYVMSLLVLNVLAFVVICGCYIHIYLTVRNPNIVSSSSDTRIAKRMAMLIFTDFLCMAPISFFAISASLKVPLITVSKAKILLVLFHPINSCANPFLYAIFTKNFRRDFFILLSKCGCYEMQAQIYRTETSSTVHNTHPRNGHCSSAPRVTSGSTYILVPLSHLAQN
Description: hFSHRago (CHO luc): agonistic activity at the human FSH receptor expressed in CHO cells, CRE-luciferase reporter. It counts as cell-based. To be noted: CHO cells stably transfected with human FSH receptor and CRE/luciferase reporter; 4 hours of incubation. (A reporter such as luciferase makes a cellular process visible.)
In turn, `COc1cc2c(cc1[N+](=O)[O-])-c1c(-c3cccs3)cc(C(=O)N(C)C(C)(C)C)n1CC2` [Example 94, 8-Methoxy-9-nitro-1-thiophen-2-yl-5,6-dihydro-pyrrolo[2,1-α]isoquinoline-3-carboxylic acid tert-butyl-methyl-amide] displayed an EC50 of 3 nM.

Compound `COc1cc2c(cc1OCCCOC1CCCCO1)-c1c(-c3cccs3)cc(C(=O)N(C)C(C)(C)C)n1CC2` (stereo not drawn) [Example 70c, 8-Methoxy-9-[3-(tetrahydro-pyran-2-yloxy)-propoxy]-1-thiophen-2-yl-5,6-dihydro-pyrrolo[2,1-α]isoquinoline-3-carboxylic acid tert-butyl-methyl-amide] yielded an EC50 of 155 nM.

As for `COc1cc2c(cc1OC(C)C)-c1c(-c3cccs3)cc(C(=O)N3CCCN(C(=O)C4CCC4)CC3)n1CC2` [Example 7c, (4-Cyclobutanecarbonyl-[1,4]diazepan-1-yl)-(9-isopropoxy-8-methoxy-1-thiophen-2-yl-5,6-dihydro-pyrrolo[2,1-α]isoquinolin-3-yl)-methanone], the EC50 amounted to 1.7 nM.

With `CCN(C(=O)c1cc(-c2cccs2)c2n1CCc1cc(OC)c(OC(C)C)cc1-2)[C@@H]1CCCN(C(=O)C2CCC2)C1` [Example 33d, 9-Isopropoxy-8-methoxy-1-thiophen-2-yl-5,6-dihydro-pyrrolo[2,1-α]isoquinoline-3-carboxylic acid ((R)-1-cyclobutanecarbonyl-piperidin-3-yl)-ethyl-amide], the 50% effective concentration (EC50) came to 279 nM.

`COc1cc2c(cc1OCCCN=[N+]=[N-])-c1c(-c3cccs3)cc(C(=O)N(C)C(C)(C)C)n1CC2` [Example 70f, 9-(3-Azido-propoxy)-8-methoxy-1-thiophen-2-yl-5,6-dihydro-pyrrolo[2,1-α]isoquinoline-3-carboxylic acid tert-butyl-methyl-amide] registered an EC50 of 10.9 nM.

For the compound `COc1cc2c(cc1C(C)=O)-c1c(-c3cccs3)cc(C(=O)N3CCCC3(C)C)n1CC2` [Example 122, 1-[3-(2,2-Dimethyl-pyrrolidine-1-carbonyl)-8-methoxy-1-thiophen-2-yl-5,6-dihydro-pyrrolo[2,1-α]isoquinolin-9-yl]-ethanone], a half-maximal response (EC50) required 2 nM.

`COc1cc2c(cc1OCC1CCCO1)-c1c(-c3cccs3)cc(C(=O)N3CCCN(C(C)=O)CC3)n1CC2` (stereo not drawn) [Example 78, 1-{4-[8-Methoxy-9-(tetrahydro-furan-2-ylmethoxy)-1-thiophen-2-yl-5,6-dihydro-pyrrolo[2,1-α]isoquinoline-3-carbonyl]-perhydro-1,4-diazepin-1-yl}-ethanone] displayed an EC50 of 96.2 nM.

The compound `CCOC(=O)Nc1cc2c(cc1OC)CCn1c(C(=O)N3CCCC3(C)C)cc(-c3cccs3)c1-2` [Example 99, [3-(2,2-Dimethyl-pyrrolidine-1-carbonyl)-8-methoxy-1-thiophen-2-yl-5,6-dihydro-pyrrolo[2,1-α]isoquinolin-9-yl]-carbamic acid ethyl ester] had an EC50 of 22 nM.

As for `COc1cc2c(cc1N1CCN(C(C)=O)CC1)-c1c(-c3cccs3)cc(C(=O)N(C)C(C)(C)C)n1CC2` [Example 53, 9-(4-Acetyl-piperazin-1-yl)-8-methoxy-1-thiophen-2-yl-5,6-dihydro-pyrrolo[2,1-α]isoquinoline-3-carboxylic acid tert-butyl-methyl-amide], the concentration for a half-maximal effect (EC50) is 678 nM.

Regarding `COc1cc2c(cc1Br)-c1c(-c3cccs3)cc(C(=O)N(C)C(C)(C)C)n1CC2` [Example 85a, 9-Bromo-8-methoxy-1-thiophen-2-yl-5,6-dihydro-pyrrolo[2,1--α]isoquinoline-3-carboxylic acid tert-butyl-methyl-amide], the EC50 stood at 11.3 nM.

`COc1cc2c(cc1OC(C)C)-c1c(-c3cccs3)cc(C(=O)N[C@@H]3CCCN(C(=O)C4CCC4)C3)n1CC2` [Example 33c, 9-Isopropoxy-8-methoxy-1-thiophen-2-yl-5,6-dihydro-pyrrolo[2,1-α]isoquinoline-3-carboxylic acid ((R)-1-cyclobutanecarbonyl-piperidin-3-yl)-amide] showed an EC50 of 252 nM.

`COc1cc2c(cc1OC(C)C)-c1c(-c3cccs3)cc(C(=O)N3C[C@H]4C[C@@H](N(C)C(C)=O)C[C@H]4C3)n1CC2` [Example 26, N-[2-(9-Isopropoxy-8-methoxy-1-thiophen-2-yl-5,6-dihydro-pyrrolo[2,1-α]isoquinoline-3-carbonyl)-octahydro-cyclopenta[c]pyrrol-5-yl]-N-methyl-acetamide] came in with an EC50 of 173 nM.

As to `COc1cc2c(cc1OCCOS(C)(=O)=O)-c1c(-c3cccs3)cc(C(=O)N(C)C(C)(C)C)n1CC2` [Example 65e, Methanesulfonic acid 2-[3-(tert-butyl-methyl-carbamoyl)-8-methoxy-1-thiophen-2-yl-5,6-dihydro-pyrrolo[2,1-α]isoquinolin-9-yloxy]-ethyl ester], a half-maximal effect (EC50) was put at 15 nM.

In turn, `CN(C(=O)c1cc(-c2cccs2)c2n1CCc1ccc(N3CCNC3=O)cc1-2)C(C)(C)C` [Example 90, 9-(2-Oxo-imidazolidin-1-yl)-1-thiophen-2-yl-5,6-dihydro-pyrrolo[2,1-α]isoquinoline-3-carboxylic acid tert-butyl-methyl-amide] displayed a half-maximal effective concentration (EC50) of 218 nM.

Regarding `CCOC(=O)CN(C)C(=O)c1cc(-c2ccsc2)c2n1CCc1cc(OC)c(OC)cc1-2` [Example 119c, [(8,9-Dimethoxy-1-thiophen-3-yl-5,6-dihydro-pyrrolo[2,1-α]isoquinoline-3-carbonyl)-methyl-amino]-acetic acid ethyl ester], the EC50 came to 42 nM.

As for `COc1cc2c(cc1C=O)-c1c(-c3cccs3)cc(C(=O)N(C)C(C)(C)C)n1CC2` [Example 91a, 9-Formyl-8-methoxy-1-thiophen-2-yl-5,6-dihydro-pyrrolo[2,1-α]isoquinoline-3-carboxylic acid tert-butyl-methyl-amide], a half-maximal response (EC50) required 6 nM.

Take `COc1cc2c(cc1NC(C)C)-c1c(-c3cccs3)cc(C(=O)N(C)C(C)(C)C)n1CC2` [Example 51, 9-Isopropylamino-8-methoxy-1-thiophen-2-yl-5,6-dihydro-pyrrolo[2,1-α]isoquinoline-3-carboxylic acid tert-butyl-methyl-amide]: the response was half-maximal at 4.2 nM (EC50).

`COc1cc2c(cc1OC)-c1c(-c3cccs3)cc(C(=O)N3CCC[C@H](NC(=O)C4CCC4)C3)n1CC2` [Example 105, Cyclobutanecarboxylic acid [(S)-1-(8,9-dimethoxy-1-thiophen-2-yl-5,6-dihydro-pyrrolo[2,1-α]isoquinoline-3-carbonyl)-piperidin-3-yl]-amide]: the response was half-maximal at 1730 nM (EC50).

`COC1=CC2CCn3c(C(=O)N4CCCN(C(=O)C5CCC5)CC4)cc(-c4cccs4)c3C2C=C1Br` (stereo not drawn) [Example 82, (9-Bromo-8-methoxy-1-thiophen-2-yl-5,6,6a,10a-tetrahydro-pyrrolo[2,1--α]isoquinolin-3-yl)-(4-cyclobutanecarbonyl-[1,4]diazepan-1-yl)-methanone]: the EC50 was 5.8 nM.

The compound `CCN(C(=O)c1cc(-c2cccs2)c2n1CCc1c-2cc(OC)c(OC)c1F)C(C)C` [Example 115, 7-Fluoro-8,9-dimethoxy-1-thiophen-2-yl-5,6-dihydro-pyrrolo[2,1-α]isoquinoline-3-carboxylic acid ethyl-isopropyl-amide] came in with an EC50 of 937 nM.

In turn, `COc1cc2c(cc1OC(C)C)-c1c(-c3cccs3)cc(C(=O)N3CCCC3c3cccc(F)c3)n1CC2` (stereo not drawn) [Example 28, [2-(3-Fluoro-phenyl)-pyrrolidin-1-yl]-(9-isopropoxy-8-methoxy-1-thiophen-2-yl-5,6-dihydro-pyrrolo[2,1-α]isoquinolin-3-yl)-methanone] yielded an EC50 of 752 nM.

In turn, `COc1cc2c(cc1OC(C)C)-c1c(-c3cccs3)cc(C(=O)N3CCCN(C(=O)C4(SC)CCC4)CC3)n1CC2` [Example 9, (9-Isopropoxy-8-methoxy-1-thiophen-2-yl-5,6-dihydro-pyrrolo[2,1-α]isoquinolin-3-yl)-[4-(1-methylsulfanyl-cyclobutanecarbonyl)-[1,4]diazepan-1-yl]-methanone] had an EC50 of 16.4 nM.

`CCN(C(=O)c1cc(-c2ccsc2)c2n1CCc1cc(Br)c(OC)cc1-2)C(C)C` [Example 117, 8-Bromo-9-methoxy-1-thiophen-3-yl-5,6-dihydro-pyrrolo[2,1-α]isoquinoline-3-carboxylic acid ethyl-isopropyl-amide]: the EC50 is 1100 nM.

As to `COc1cc2c(cc1OC(C)C)-c1c(-c3cccs3)cc(C(=O)N3CCCN(C(C)=O)CC3)n1CC2` [Example 12a], the midpoint of the response, the EC50, lay at 5.2 nM.

On to `COc1cc2c(cc1OC)-c1c(-c3ccsc3)cc(C(=O)N(C)CC(=O)N(C)CC(C)C)n1CC2` [Example 119e, 8,9-dimethoxy-1-thiophen-3-yl-5,6-dihydro-pyrrolo[2,1-α]isoquinoline-3-carboxylic acid [(isobutyl-methyl-carbamoyl)-methyl]-methyl-amide], for which the response was half-maximal at 1080 nM (EC50).

`COc1cc2c(cc1OC(C)C)-c1c(-c3cccs3)cc(C(=O)N3CCNC(=O)CC3)n1CC2` [Example 13, 1-(9-Isopropoxy-8-methoxy-1-thiophen-2-yl-5,6-dihydro-pyrrolo[2,1-α]isoquinoline-3-carbonyl)-[1,4]diazepan-5-one] yielded an EC50 of 106 nM.
